The target in one assay is GCN2 kinase (Homo sapiens, UniProt Q9P2K8). As to the kind of experiment: GCN2 enzyme inhibition assay (Transcreener ADP2 fluorescence polarization). Type of assay: biochemical. The note with it: compounds of Formula II; 280 μM ATP, 4 nM GCN2 kinase. The gist of the method:
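Human GCN2 (4 nM) preincubated 10 min with compound (0–8 μM) and 200 μM (RS)7 peptide in Tris-HCl pH 7.5, NaCl, MgCl2, DTT. Reaction started with 280 μM ATP, run 1 h at 25 °C. ADP detected by Transcreener fluorescence polarization. IC50 and Ki(app) fitted by tight-binding algorithm.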
(Fluorescence polarisation rises when a labelled molecule tumbles more slowly, as on binding a larger partner.)

Assay [1] has as its target intracellular GCN2 (phosphorylation of the GCN2 substrate eIF2α) (Homo sapiens, UniProt Q9P2K8). In words: GCN2 cellular inhibition assay (AlphaScreen SureFire P-eIF2α Ser51, borrelidin-treated U2OS cells). The class given is cell-based. As to conditions: compounds of Formula II; biomarker assay, phosphorylated eIF2α Ser51 in borrelidin-treated U2OS cells. The gist of the method:
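Read-out: AlphaScreen SureFire phospho-eIF2α (Ser51) signal in U2OS lysates. Cells get 4-fold compound dilutions (top 40 μM final) plus 10 μM borrelidin, 1 h, 37 °C. Percent inhibition is relative to borrelidin-alone controls.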

Structures are written as SMILES. Where only a bound is given, the exact number is not on record here.

intracellular GCN2 (phosphorylation of the GCN2 substrate eIF2α), sequence (Q9P2K8 whole entry): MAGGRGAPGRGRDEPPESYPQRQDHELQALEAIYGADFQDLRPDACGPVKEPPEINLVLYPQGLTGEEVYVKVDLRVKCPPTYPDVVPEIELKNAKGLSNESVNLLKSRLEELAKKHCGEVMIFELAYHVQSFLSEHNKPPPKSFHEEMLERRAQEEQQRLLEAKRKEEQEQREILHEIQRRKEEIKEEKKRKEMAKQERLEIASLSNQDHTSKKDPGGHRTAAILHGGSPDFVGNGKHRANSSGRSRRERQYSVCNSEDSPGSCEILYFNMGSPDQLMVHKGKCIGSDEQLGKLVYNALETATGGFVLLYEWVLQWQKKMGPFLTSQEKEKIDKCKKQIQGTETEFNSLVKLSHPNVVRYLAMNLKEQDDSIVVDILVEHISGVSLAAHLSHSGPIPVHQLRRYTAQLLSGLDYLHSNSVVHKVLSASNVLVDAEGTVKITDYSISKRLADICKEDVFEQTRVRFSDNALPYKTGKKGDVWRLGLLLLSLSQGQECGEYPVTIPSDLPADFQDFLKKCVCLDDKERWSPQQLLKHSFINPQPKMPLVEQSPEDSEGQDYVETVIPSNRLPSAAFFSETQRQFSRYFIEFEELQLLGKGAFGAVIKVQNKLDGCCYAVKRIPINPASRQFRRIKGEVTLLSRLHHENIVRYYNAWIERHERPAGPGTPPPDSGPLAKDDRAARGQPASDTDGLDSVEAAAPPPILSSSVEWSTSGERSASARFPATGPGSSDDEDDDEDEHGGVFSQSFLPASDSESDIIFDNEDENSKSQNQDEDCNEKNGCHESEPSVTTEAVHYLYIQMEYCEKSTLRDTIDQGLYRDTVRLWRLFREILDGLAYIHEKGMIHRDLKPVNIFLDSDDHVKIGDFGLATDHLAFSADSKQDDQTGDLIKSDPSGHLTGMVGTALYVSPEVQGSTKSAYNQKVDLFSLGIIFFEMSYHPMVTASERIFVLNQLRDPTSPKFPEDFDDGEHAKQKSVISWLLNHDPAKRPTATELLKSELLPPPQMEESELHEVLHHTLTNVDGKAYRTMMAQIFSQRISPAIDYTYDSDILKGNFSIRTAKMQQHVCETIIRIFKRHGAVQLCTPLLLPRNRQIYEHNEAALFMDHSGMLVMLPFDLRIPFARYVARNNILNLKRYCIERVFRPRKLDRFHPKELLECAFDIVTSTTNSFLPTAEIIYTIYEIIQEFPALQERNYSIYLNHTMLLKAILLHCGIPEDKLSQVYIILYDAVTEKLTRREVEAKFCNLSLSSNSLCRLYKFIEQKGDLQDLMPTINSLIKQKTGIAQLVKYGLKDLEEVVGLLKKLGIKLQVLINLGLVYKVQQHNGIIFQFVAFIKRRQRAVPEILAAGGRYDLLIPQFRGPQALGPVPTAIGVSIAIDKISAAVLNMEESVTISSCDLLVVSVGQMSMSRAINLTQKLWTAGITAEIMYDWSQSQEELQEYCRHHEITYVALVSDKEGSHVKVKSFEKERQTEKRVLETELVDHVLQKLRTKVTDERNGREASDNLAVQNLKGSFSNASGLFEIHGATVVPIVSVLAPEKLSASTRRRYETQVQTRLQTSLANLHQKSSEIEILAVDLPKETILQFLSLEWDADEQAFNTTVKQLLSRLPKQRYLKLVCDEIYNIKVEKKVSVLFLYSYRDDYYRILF
GCN2 kinase, sequence (Q9P2K8 whole entry): as above

Turning to `CC1(C)CN(c2cc(-c3cnc4ccc(C(F)F)nn34)ccn2)C[C@H](CNS(C)(=O)=O)O1` [II-148, (R)—N-((4-(4-(6-(Difluoromethyl)imidazo[1,2-b]pyridazin-3-yl)pyridin-2-yl)-6,6-dimethylmorpholin-2-yl)methyl)methanesulfonamide], the Ki (commonly a measure of affinity in units of concentration, obtained from inhibition or displacement) on GCN2 kinase is < 10 nM. Moreover, in assay [1], the IC50 (commonly the concentration needed to halve the response being measured) is < 500 nM.
With `CS(=O)(=O)NCC1CN(c2cc(-c3cnc4ccc(C(F)F)nn34)ccn2)CCO1` (stereo not shown) [II-149, N-((4-(4-(6-(Difluoromethyl)imidazo[1,2-b]pyridazin-3-yl)pyridin-2-yl)morpholin-2-yl)methyl)methanesulfonamide], on GCN2 kinase, the Ki was < 10 nM. The IC50 in assay [1] is < 500 nM.
The corresponding values for `CC(=O)N1CCN(c2cccc(-c3cnc4ccc(C(F)F)nn34)c2)CC1` [II-150, 1-(4-(3-(6-(Difluoromethyl)imidazo[1,2-b]pyridazin-3-yl)phenyl)piperazin-1-yl)ethanone] are 10 to 1000 nM and 500 to 5000 nM.
The corresponding values for `C[S+]([O-])CC1CCCN(c2cc(-c3cnc4ccc(C(F)F)nn34)ccn2)C1` (stereo not shown) [II-151, 6-(Difluoromethyl)-3-(2-(3-((methylsulfinyl)methyl)piperidin-1-yl)pyridin-4-yl)imidazo[1,2-b]pyridazine] are 10 to 1000 nM and 500 to 5000 nM.
As to `CS(=O)(=O)NCC1CN(c2cc(-c3cnc4ccc(C(F)F)nn34)ncn2)CC1O` (stereo not shown) [II-152, N-((1-(6-(6-(Difluoromethyl)imidazo[1,2-b]pyridazin-3-yl)pyrimidin-4-yl)-4-hydroxypyrrolidin-3-yl)methyl)methanesulfonamide], on GCN2 kinase, the inhibition constant Ki was 10 to 1000 nM. The IC50 in assay [1] was > 5000 nM.
Consider `CS(=O)(=O)NCC1CN(c2cc(-c3cnc4ccc(C(F)F)nn34)ccn2)CCC1(F)F` (stereo not shown) [II-153, N-[[1-[4-[6-(Difluoromethyl)imidazo[1,2-b]pyridazin-3-yl]-2-pyridyl]-4,4-difluoro-3-piperidyl]methyl]methanesulfonamide], for which, on GCN2 kinase, the Ki was < 10 nM. Besides, in assay [1], the IC50 was < 500 nM.
With `CS(=O)(=O)NC[C@H]1CCCN(c2cc(-c3cnc4ccc(C(F)F)nn34)ccn2)C1` [II-154, (S)—N-((1-(4-(6-(Difluoromethyl)imidazo[1,2-b]pyridazin-3-yl)pyridin-2-yl)piperidin-3-yl)methyl)methanesulfonamide], on GCN2 kinase, the inhibition constant (Ki) is < 10 nM. Besides, the IC50 in assay [1] is < 500 nM.
`CS(=O)(=O)NC[C@@H]1CCCN(c2cc(-c3cnc4ccc(C(F)F)nn34)ccn2)C1` [II-155, (R)—N-((1-(4-(6-(Difluoromethyl)imidazo[1,2-b]pyridazin-3-yl)pyridin-2-yl)piperidin-3-yl)methyl)methanesulfonamide] displayed a Ki on GCN2 kinase of 10 to 1000 nM. The compound further gave an IC50 in assay [1] of 500 to 5000 nM.
Compound `O=C1NCCC12CCCN(c1cc(-c3cnc4ccc(C(F)F)nn34)ccn1)C2` (stereo not shown) [II-156, 7-(4-(6-(Difluoromethyl)imidazo[1,2-b]pyridazin-3-yl)pyridin-2-yl)-2,7-diazaspiro[4.5]decan-1-one] returned a Ki on GCN2 kinase of 10 to 1000 nM. This compound also showed a 50% inhibitory concentration (IC50) in assay [1] of 500 to 5000 nM.
In the case of `CS(=O)(=O)NCC1CCCN(c2cc(-c3cnc4ccc(C(F)F)nn34)ccn2)C1` (stereo not shown) [II-157, N-((1-(4-(6-(Difluoromethyl)imidazo[1,2-b]pyridazin-3-yl)pyridin-2-yl)piperidin-3-yl)methyl)methanesulfonamide], the Ki at GCN2 kinase was < 10 nM. The IC50 in assay [1] is < 500 nM.
In turn, `CS(=O)(=O)NCC1(O)CCCN(c2cc(-c3cnc4ccc(C(F)F)nn34)ncn2)C1` (stereo not shown) [II-158, N-((1-(6-(6-(Difluoromethyl)imidazo[1,2-b]pyridazin-3-yl)pyrimidin-4-yl)-3-hydroxypiperidin-3-yl)methyl)methanesulfonamide] registered a Ki on GCN2 kinase of 10 to 1000 nM. Moreover, in assay [1], the IC50 lay within 500 to 5000 nM.
Compound `CC(NS(C)(=O)=O)C1CN(c2cc(-c3cnc4ccc(C(F)F)nn34)ncn2)CCO1` (stereo not shown) [II-159, N-(1-(4-(6-(6-(Difluoromethyl)imidazo[1,2-b]pyridazin-3-yl)pyrimidin-4-yl)morpholin-2-yl)ethyl)methanesulfonamide] registered a Ki on GCN2 kinase of 10 to 1000 nM. The IC50 in assay [1] was 500 to 5000 nM.
With `O=C1CN(c2cc(-c3cnc4ccc(C(F)F)nn34)ccn2)CC2(CC2)N1` [II-160, 7-(4-(6-(Difluoromethyl)imidazo[1,2-b]pyridazin-3-yl)pyridin-2-yl)-4,7-diazaspiro[2.5]octan-5-one], on GCN2 kinase, the Ki was 10 to 1000 nM. The compound also yielded a half-inhibitory concentration (IC50) in assay [1] of 500 to 5000 nM.
In the case of `FC(F)c1ccc2ncc(-c3ccnc(N4CCC5(CCNCC5)CC4)c3)n2n1` [II-161, 3-(2-(3,9-Diazaspiro[5.5]undecan-3-yl)pyridin-4-yl)-6-(difluoromethyl)imidazo[1,2-b]pyridazine], the Ki at GCN2 kinase lay within 10 to 1000 nM. Besides, in assay [1], the IC50 is > 5000 nM.
Compound `OCC1CCCN(c2cc(-c3cnc4ccc(C(F)F)nn34)ccn2)C1` (stereo not shown) [II-162, (1-(4-(6-(Difluoromethyl)imidazo[1,2-b]pyridazin-3-yl)pyridin-2-yl)piperidin-3-yl)methanol] had an inhibitory constant (Ki) on GCN2 kinase of 10 to 1000 nM. This compound showed an IC50 in assay [1] of 500 to 5000 nM.
On GCN2 kinase, `CC(=O)N1CCCN(c2cc(-c3cnc4ccc(C(F)F)nn34)ccn2)CC1` [II-163, 1-(4-(4-(6-(Difluoromethyl)imidazo[1,2-b]pyridazin-3-yl)pyridin-2-yl)-1,4-diazepan-1-yl)ethanone] yielded a Ki of 10 to 1000 nM. The compound also gave an IC50 in assay [1] of 500 to 5000 nM.
For `O=C1CCN(c2cc(-c3cnc4ccc(C(F)F)nn34)ccn2)CCN1` [II-164, 1-(4-(6-(Difluoromethyl)imidazo[1,2-b]pyridazin-3-yl)pyridin-2-yl)-1,4-diazepan-5-one], the Ki at GCN2 kinase is 10 to 1000 nM. In assay [1], the half-maximal inhibitory concentration (IC50) lay within 500 to 5000 nM.
In turn, `O=C1CCC2CN(c3cc(-c4cnc5ccc(C(F)F)nn45)ccn3)CCN12` (stereo not shown) [II-167, 2-(4-(6-(Difluoromethyl)imidazo[1,2-b]pyridazin-3-yl)pyridin-2-yl)hexahydropyrrolo[1,2-a]pyrazin-6(2H)-one] gave a Ki at GCN2 kinase of 10 to 1000 nM. Besides, the IC50 in assay [1] is > 5000 nM.
The corresponding values for `OCCC1CCN(c2cc(-c3cnc4ccc(C(F)F)nn34)ccn2)CC1` [II-168, 2-(1-(4-(6-(Difluoromethyl)imidazo[1,2-b]pyridazin-3-yl)pyridin-2-yl)piperidin-4-yl)ethanol] are 10 to 1000 nM and 500 to 5000 nM.
The corresponding values for `OC[C@@H]1CN(c2cc(-c3cnc4ccc(C(F)F)nn34)ccn2)CCN1` [II-169, (S)-(4-(4-(6-(Difluoromethyl)imidazo[1,2-b]pyridazin-3-yl)pyridin-2-yl)piperazin-2-yl)methanol] are 10 to 1000 nM and > 5000 nM.
Take `COCC(=O)N1CCN(c2cc(-c3cnc4ccc(C(F)F)nn34)ccn2)CC1` [II-170, 1-(4-(4-(6-(Difluoromethyl)imidazo[12-b]pyridazin-3-yl)pyridin-2-yl)piperazin-1-yl)-2-methoxyethanone]: on GCN2 kinase, the Ki was in the range of 10 to 1000 nM. Further, in assay [1], the IC50 lay within 500 to 5000 nM.
As for `CC(=O)N1CCN(c2cncc(-c3cnc4ccc(C(F)F)nn34)c2)CC1` [II-171, 1-(4-(5-(6-(Difluoromethyl)imidazo[12-b]pyridazin-3-yl)pyridin-3-yl)piperazin-1-yl)ethanone], the Ki at GCN2 kinase fell in the range of 10 to 1000 nM. Further, in assay [1], the IC50 lay in the range of 500 to 5000 nM.
`O=C1NCC2CN(c3cc(-c4cnc5ccc(C(F)F)nn45)ccn3)CCN12` (stereo not shown) [II-172, 7-(4-(6-(Difluoromethyl)imidazo[1,2-b]pyridazin-3-yl)pyridin-2-yl)hexahydroimidazo[1,5-a]pyrazin-3(2H)-one] gave a Ki at GCN2 kinase of 10 to 1000 nM. Moreover, in assay [1], the IC50 was in the range of 500 to 5000 nM.
Compound `O=C1NCC2CN(c3cc(-c4cnc5ccc(C(F)F)nn45)ccn3)CCN12` (stereo not shown) [II-173, 7-(4-(6-(Difluoromethyl)imidazo[1,2-b]pyridazin-3-yl)pyridin-2-yl)hexahydroimidazo[1,5-a]pyrazin-3(2H)-one] registered a Ki at GCN2 kinase of 10 to 1000 nM. The IC50 in assay [1] is 500 to 5000 nM.
As to `FC(F)c1ccc2ncc(-c3ccnc(N4CCn5cnnc5C4)c3)n2n1` [II-174, 7-(4-(6-(Difluoromethyl)imidazo[1,2-b]pyridazin-3-yl)pyridin-2-yl)-5,6,7,8-tetrahydro-[1,2,4]triazolo[4,3-a]pyrazine], the Ki on GCN2 kinase lay within 10 to 1000 nM. Further, the IC50 in assay [1] was > 5000 nM.
For `O=C1NCC2CN(c3cc(-c4cnc5ccc(C(F)F)nn45)ccn3)CCN12` (stereo not shown) [II-175, 7-(4-(6-(Difluoromethyl)imidazo[1,2-b]pyridazin-3-yl)pyridin-2-yl)hexahydroimidazo[1,5-a]pyrazin-3(2H)-one], the Ki at GCN2 kinase was in the range of 10 to 1000 nM. The compound further had an IC50 in assay [1] of 500 to 5000 nM.
`CC(=O)N1CCN(c2cc(-c3cnc4ccc(C(F)F)nn34)ccn2)CC1` [II-176, 1-(4-(4-(6-(Difluoromethyl)imidazo[1,2-b]pyridazin-3-yl)pyridin-2-yl)piperazin-1-yl)ethanone] displayed a Ki on GCN2 kinase of 10 to 1000 nM. For the same compound, the half-inhibitory concentration (IC50) in assay [1] lay in the range of 500 to 5000 nM.
For the compound `CC(NS(C)(=O)=O)C1CN(c2cc(-c3cnc4ccc(C(F)F)nn34)ncn2)CCO1` (stereo not shown) [II-177, N-(1-(4-(6-(6-(Difluoromethyl)imidazo[1,2-b]pyridazin-3-yl)pyrimidin-4-yl)morpholin-2-yl)ethyl)methanesulfonamide], the Ki on GCN2 kinase is < 10 nM. For the same compound, the IC50 in assay [1] was < 500 nM.
For `O=C(NCCO)N1CCCC(c2cc(-c3cnc4ccc(C(F)F)nn34)ncn2)C1` (stereo not shown) [II-178, 3-(6-(6-(difluoromethyl)imidazo[1,2-b]pyridazin-3-yl)pyrimidin-4-yl)-N-(2-hydroxyethyl)piperidine-1-carboxamide], the Ki at GCN2 kinase lay within 10 to 1000 nM. The compound also gave an IC50 in assay [1] of 500 to 5000 nM.

For the origin of these results see patent publication US10988477B2 (Merck Patent GmbH, priority 2018, dated 2021).
